Experimental findings from US6737058B2, “Methods for inhibiting endothelial cell and fibrinogen mediated inflammation using fibrinogen specific antibodies” (The Scripps Research Institute, priority 1992, dated 2004) are described below.

This assay concerns HUVEC. As to the kind of experiment: Fibrinogen-mediated adhesion of 51Cr-labelled THP-1 cells to HUVEC. It is filed as cell-based, human. The method, then:
For these assays, HUVEC were plated in the medium described in Example 2A at a density of approximately 1-5×10^4 cells/well into flat-bottom microtiter wells of a 96 well tissue-culture treated plate. The cells were then washed in serum-free RPMI 1640 and further maintained with ^51-Chromium-labelled (^51Cr) THP-1 cell suspensions previously exposed to different concentrations of unlabelled fibrinogen or left untreated. To label THP-1 cells, serum-free suspensions of the cells at a concentration of 1×10^7 cells/ml were labelled with 0.5 mCi ^51Cr (Na2CrO4 having a specific activity of 487.4 mCi/mg, NEN Du Pont de Nemours) for 2 hours at 37° C. with incorporation of an average of 12 to 20 cpm/THP-1 cell. The labelled cells were then washed twice at room temperature with serum-free RPMI 1640 and resuspended in the same medium at a concentration of 5 ×10^5 cells/ml. The labelled cells were used in the assays within 2 hours from the labelling procedure. For the assays, the cells were pre-stimulated with 1 μM N-FMLP in the presence of 1 mM CaCl2 and […] PPack. The resultant N-FMLP-stimulated THP-1 cell suspensions were then separately admixed with the following: 1) Medium without any admixed fibrinogen as a control; 2) Fibrinogen at 1.2 mg/ml and at 2.5 mg/ml concentrations; and 3) Normal human plasma (NHP) diluted 1:2 and 1:50. Purified fibrinogen was prepared as described in Example 1. Fibrinogen was present in undiluted normal human plasma at the concentration of approximately 1-3 mg/ml. The resultant admixtures were maintained for 20 minutes at 22° C. to allow for the binding of fibrinogen, either purified or present in NHP, to the Mac-1 receptor on the surface of the THP-1 cells.
The resultant fibrinogen-bound THP-1 cells were then admixed to the washed immobilized HUVEC described above to allow for the binding of a non-Mac-1 receptor binding site on fibrinogen to the RGD-independent fibrinogen receptor on the surface of HUVEC, thereby resulting in the binding of THP-1 cells to HUVEC via a fibrinogen bridge. The admixtures were maintained at 37° C. to allow for adhesion. At selected time intervals between 1 to 60 minutes, the HUVEC monolayers were gently washed five times with serum-free RPMI 1640 to remove nonadherent or loosely adherent THP-1 cells to which fibrinogen was initially immobilized. The adherent cells were then solubilized in 10% SDS and the cell lysate was quantitated in a beta scintillation counter. Spontaneous ^51Cr release from THP-1 cells was always less than 2% during the adhesion assay. The number of specifically attached THP-1 cells was determined by dividing the cpm harvested by the cpm/cell.
To determine the effects that temperature has on the ability of fibrinogen to mediate the binding of ^51Cr-labelled THP-1 cells to monolayers of HUVEC, cell adhesion assays as described in Example 3B1) were performed at 22° C. and at 37° C. over the course of one hour. The assays were performed in an identical manner as described above with the exception that 500 μg/ml of fibrinogen was used instead of […]. The maximum binding of THP-1 cells to HUVEC at 22° C. was 7500 cells after 40 minutes. At 60 minutes, the binding decreased to 5000 cells. The data is significant in comparison to the approximately 2000 THP-1 cells attached in the absence of fibrinogen. However, at 37° C., approximately 20,000 THP-1 cells attached to HUVEC after 40 minutes against a background binding of approximately 5000 cells in the absence of fibrinogen. The binding of ^51Cr-labelled THP-1 cells to HUVEC, thus, is maximized at the physiologic temperature of 37° C. with physiologic concentrations of fibrinogen.

On to “fibrinogen: fibrinogen isolated from fresh plasma by cold ethanol fractionation, fibronectin-free”, for which the “THP-1 cells bound to HUVEC, maximum” value (500 μg/ml fibrinogen, 22° C., 40 minutes) is on record as 7500 cells. Moreover, under “500 μg/ml fibrinogen, 22° C., 60 minutes”, the “THP-1 cells bound to HUVEC” value came to 5000 cells. Further, the “THP-1 cells attached to HUVEC” value is “approximately 20,000 cells” (500 μg/ml fibrinogen, 37° C., 40 minutes) and “approximately 18,000 cells” (2.5 mg/ml fibrinogen, 60 minutes, not saturated). The “THP-1 cells attached to HUVEC (parallel control), maximal” value (500 μg/ml fibrinogen, 60 minutes, non-saturable) is reported as “approximately 25,000 cells”. Moreover, the “THP-1 cells attached to HUVEC, maximum” value (1.2 mg/ml fibrinogen, 37° C., 60 minute time course) is listed as 10,000 cells.
